Test results published in article PMC8304516, “A Fungal Defensin Targets the SARS−CoV−2 Spike Receptor−Binding Domain” (Journal of Fungi, 2021).
Where two headings read alike, the source gives them in different places. Bridge positions count the residues as written; N and C are the ends. Peptide text beside a SMILES is read from it.

How the values were obtained:
SARS−CoV−2 Spike RBD = SARS−CoV−2 Spike RBD (Severe acute respiratory syndrome coronavirus 2, UniProt P0DTC2); assay: biochemical; type: binding
[1] = biological target: SARS-CoV-2 Spike receptor-binding domain (residues N334-P527) (SARS-CoV-2 (isolate Wuhan-Hu-1)) (UniProt P0DTC2); assay: MST

Row | Compound | Kd (SARS−CoV−2 Spike RBD; KD, SD) [nM] | other results
1 | CC[C@H](C)[C@@H]1NC(=O)[C@H](CO)NC(=O)[C@H](CC(C)C)NC(=O)[C@@H]2CSSC[C@@H](C(=O)NCC(=O)N[C@@H](CCCCN)C(=O)N[C@@H](CCC(N)=O)C(=O)O)NC(=O)[C@H]([C@@H](C)O)NC(=O)[C@@H]3CSSC[C@H](NC(=O)[C@H](CCC(=O)O)NC(=O)[C@H](CC(N)=O)NC(=O)[C@H](CCCNC(=N)N)NC(=O)[C@H](CC(N)=O)NC(=O)[C@H](Cc4ccccc4)NC(=O)[C@@H]4CCCN4C(=O)[C@@H](NC(=O)CNC(=O)[C@H](Cc4ccccc4)NC(=O)CN)CSSC[C@H](NC(=O)[C@H](Cc4ccccc4)NC(=O)CNC(=O)[C@H](Cc4ccccc4)NC(=O)[C@H](CCCCN)NC(=O)[C@H](CCCNC(=N)N)NC(=O)CNC1=O)C(=O)N[C@@H](C)C(=O)NCC(=O)N1CCC[C@H]1C(=O)N[C@@H](CC(C)C)C(=O)N[C@@H](CCCNC(=N)N)C(=O)N[C@@H](C)C(=O)N[C@@H]([C@@H](C)O)C(=O)N3)C(=O)N[C@@H](Cc1c[nH]cn1)C(=O)N[C@@H](C)C(=O)N[C@@H](Cc1c[nH]cn1)C(=O)N2 [E8R] (H-GFGCPFNRNECHAHCLSIGRKFGFCAGPLRATCTCGKQ-OH; disulfide 4-25, 11-33, 15-35) | 720 ± 220 | –
2 | CC[C@H](C)[C@@H]1NC(=O)[C@H](CO)NC(=O)[C@H](CC(C)C)NC(=O)[C@@H]2CSSC[C@@H](C(=O)NCC(=O)N[C@@H](CCCCN)C(=O)N[C@@H](CCC(N)=O)C(=O)O)NC(=O)[C@H]([C@@H](C)O)NC(=O)[C@@H]3CSSC[C@H](NC(=O)[C@H](CCC(=O)O)NC(=O)[C@H](CC(N)=O)NC(=O)[C@H](CCC(=O)O)NC(=O)[C@H](CC(N)=O)NC(=O)[C@H](Cc4ccccc4)NC(=O)[C@@H]4CCCN4C(=O)[C@@H](NC(=O)CNC(=O)[C@H](Cc4ccccc4)NC(=O)CN)CSSC[C@H](NC(=O)[C@H](Cc4ccccc4)NC(=O)CNC(=O)[C@H](Cc4ccccc4)NC(=O)[C@H](CCCCN)NC(=O)[C@H](CCCNC(=N)N)NC(=O)CNC1=O)C(=O)N[C@@H](C)C(=O)NCC(=O)N1CCC[C@H]1C(=O)N[C@@H](CC(C)C)C(=O)N[C@@H](CCCNC(=N)N)C(=O)N[C@@H](C)C(=O)N[C@@H]([C@@H](C)O)C(=O)N3)C(=O)N[C@@H](Cc1c[nH]cn1)C(=O)N[C@@H](C)C(=O)N[C@@H](Cc1c[nH]cn1)C(=O)N2 [micasin] (H-GFGCPFNENECHAHCLSIGRKFGFCAGPLRATCTCGKQ-OH; disulfide 4-25, 11-33, 15-35) | 5040 ± 960 | –
3 | CC[C@H](C)[C@@H]1NC(=O)[C@H](CO)NC(=O)[C@H](CC(C)C)NC(=O)[C@@H]2CSSC[C@@H](C(=O)NCC(=O)N[C@@H](CCCCN)C(=O)N[C@@H](CCC(N)=O)C(=O)O)NC(=O)[C@H]([C@@H](C)O)NC(=O)[C@@H]3CSSC[C@H](NC(=O)[C@H](CCC(=O)O)NC(=O)[C@H](CC(N)=O)NC(=O)[C@H](CCCNC(=N)N)NC(=O)[C@H](CC(N)=O)NC(=O)[C@H](Cc4ccccc4)NC(=O)[C@@H]4CCCN4C(=O)[C@@H](NC(=O)CNC(=O)[C@H](Cc4ccccc4)NC(=O)CN)CSSC[C@H](NC(=O)[C@H](Cc4ccccc4)NC(=O)CNC(=O)[C@H](Cc4ccccc4)NC(=O)[C@H](CCCCN)NC(=O)[C@H](CCCNC(=N)N)NC(=O)CNC1=O)C(=O)N[C@@H](C)C(=O)NCC(=O)N1CCC[C@H]1C(=O)N[C@@H](CC(C)C)C(=O)N[C@@H](CCCNC(=N)N)C(=O)N[C@@H](C)C(=O)N[C@@H]([C@@H](C)O)C(=O)N3)C(=O)N[C@@H](Cc1c[nH]cn1)C(=O)N[C@@H](C)C(=O)N[C@@H](Cc1c[nH]cn1)C(=O)N2 [rE8R] (H-GFGCPFNRNECHAHCLSIGRKFGFCAGPLRATCTCGKQ-OH; disulfide 4-25, 11-33, 15-35) | – | Kd (SARS−CoV−2 Spike RBD; n = 2, read-out: KD): 1920 nM
4 | recombinant micasin E8K (peptide) | – | Kd [1]: 1900 nM
